Values joined by “and” are separate entries in the source; they are usually repeats but may differ in a detail not shown here. Equal values may be shown once.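 Following 48 hours of exposure in 96-well plates, responses at five concentrations were used to interpolate endpoints linearly. Abbreviation: GI50, concentration required for 50% inhibition of growth. Definition used: TGI = concentration required for complete inhibition of growth.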
How the values were obtained:
Test in all cases: DTP human tumour cell line panel, 48 h
HCT-116 colon = test system: HCT-116 colon
TK-10 renal = test system: TK-10 renal
MDA-MB-231 breast = test system: MDA-MB-231 breast
MDA-MB-435 = test system: MDA-MB-435
OVCAR-4 ovarian = test system: OVCAR-4 ovarian
CAKI-1 renal = test system: CAKI-1 renal
MOLT-4 leukemia = test system: MOLT-4 leukemia
BT-549 breast = test system: BT-549 breast
DU-145 prostate = test system: DU-145 prostate
OVCAR-3 ovarian = test system: OVCAR-3 ovarian

Row | Compound | TGI (HCT-116 colon) [µM] | TGI (TK-10 renal) [µM] | TGI (MDA-MB-231 breast) [µM] | TGI (MDA-MB-435) | TGI (OVCAR-4 ovarian) [µM] | TGI (CAKI-1 renal) | TGI (MOLT-4 leukemia) [µM] | TGI (BT-549 breast) [µM] | TGI (DU-145 prostate) [µM] | TGI (OVCAR-3 ovarian) [µM] | GI50 (MDA-MB-435) | GI50 (CAKI-1 renal) | GI50 (MOLT-4 leukemia) | GI50 (OVCAR-3 ovarian)
1 | C[n+]1c(/C=C/c2ccc(O)c3ncccc23)[se]c2ccccc21 | 11.4 | 10.9 | 8.33 | 28.4 µM | > 47 | 26 µM | > 22.7 | 35 | 16.8 | 4.5 | – | – | – | –
2 | O=C(OCC1OC(n2nc(Cn3nnc(-c4cccnc4)n3)n(-c3cccc4ccccc34)c2=S)C(OC(=O)c2ccccc2)C1OC(=O)c1ccccc1)c1ccccc1 (centres undefined) | > 100 | > 100 | > 100 | > 100 µM | > 100 | > 100 µM | > 100 | > 100 | > 100 | > 100 | – | – | – | –
3 | Cc1cc(O)c(-c2cc(O)c(C)cc2O)cc1O | 21.7 | 16 | 33.3 | 9.32 µM | 20.9 | 14.6 µM | 5.21 | 26.7 | 28.5 | 5.12 | – | – | – | –
4 | Cc1cc(C)nc(NS(=O)(=O)c2ccc(NC(=O)c3cccc4c(NNc5ccc(S(=O)(=O)N=C(N)N)cc5)c5ccccc5nc34)cc2)n1 | > 50 | > 50 | > 50 | > 50 µM | > 50 | > 50 µM | > 50 | > 50 | > 50 | > 50 | – | – | – | –
5 | O=C(O)CN(CC(=O)O)C(C(=O)O)c1ccccc1 (centres undefined) | > 100 | > 100 | > 100 | > 100 µM | > 100 | > 100 µM | > 100 | > 100 | > 100 | > 100 | – | – | – | –
6 | C=CCN1C(=O)/C(=C/c2ccc(C)cc2)N=C1SC1OC(COC(C)=O)C(OC(C)=O)C(OC(C)=O)C1OC(C)=O (centres undefined) | > 100 | > 100 | > 100 | > 100 µM and 21.4 µM | 64.1 | > 100 µM and 63.4 µM | > 100 | > 100 | > 100 | > 100 | > 70.6 µM and 7.32 µM | 4.88 µM and 11.2 µM | > 59.9 µM and 14.6 µM | > 100 µM and 29.4 µM
7 | COc1cc(C(O)c2ccc3c(c2)OCO3)cc(OC)c1OC (centres undefined) | > 100 | > 100 | > 100 | > 100 µM | > 100 | > 100 µM | > 100 | > 100 | > 100 | > 100 | – | – | – | –
8 | O=C1C=CC(=O)C(CNc2ccc(C(=O)OCc3ccccc3)cc2)=C1 | 18.2 | 14.9 | 24.9 | 18.7 µM | 10.4 | 2.94 µM | > 100 | 9.31 | 25.1 | 7.23 | – | – | – | –
9 | Clc1ccc(/C(=C\c2ccccc2)Cn2ccnc2)cc1 | 29.1 | > 100 | 26.8 | 34.6 µM | > 100 | 30.1 µM | > 100 | 38 | 58.3 | – | – | – | – | –
10 | CC1(C)OC2COC3([C@@H]4OC(C)(C)O[C@@H]4CO)OC(C)(C)OC3C2O1 (some centres undefined) | > 100 | – | > 100 | > 100 µM | > 100 | > 100 µM | – | > 100 | > 100 | > 100 | – | – | – | –
11 | CC(C)[Si](OC/C(=C/COC(C)(C)C)[C@H]1CC=C(C(=O)c2ccccc2N2CN(C)C(=O)N(C)C2)C1)(C(C)C)C(C)C | 4.97 | 24.2 | 26.6 | 30.3 µM | 39.3 | 23.5 µM | 1.67 | 26.5 | 29.9 | 25 | – | – | – | –
12 | CCNc1ncnc2sc(SCc3ccccc3)nc12 | > 100 | > 100 | > 100 | > 100 µM | > 100 | > 100 µM | > 100 | > 100 | > 100 | > 100 | – | – | – | –
13 | C(=C\c1ccccc1)/COc1ccccc1C(N1CCOCC1)n1nc2ccccc2n1 (centres undefined) | 22.8 | 32.4 | 15 | 1.9 µM | 57.9 | 43.7 µM | 13.2 | 26.4 | 63.3 | 7.04 | – | – | – | –
14 | Cc1cc(NS(=O)(=O)c2ccc(NC(NC(=O)C(C(F)(F)F)C(F)(F)F)(C(F)(F)F)C(F)(F)F)cc2)no1 | > 100 | > 100 | > 100 | > 100 µM | > 100 | > 100 µM | > 100 | > 100 | > 100 | > 100 | – | – | – | –
15 | C=CC(=O)N1C/C(=C\c2ccc(Cl)cc2)C(=O)/C(=C/c2ccc(Cl)cc2)C1 | 0.257 | 4.01 | 1.2 | 0.785 µM | 1.22 | 1.32 µM | – | 1.09 | 3.66 | 1.03 | – | – | – | –
16 | COc1nc2c(N3CCCC3)nc(N3CCNCC3)nc2nc1NCc1ccccc1 | 2.63 | 5.78 | 3.72 | 2.95 µM | 11.5 | 8.8 µM | 4.65 | 4.01 | 12.3 | 2.42 | – | – | – | –
17 | C/C(=N\Nc1nc2ccccc2s1)c1ccc2ccccc2n1 | > 100 | > 100 | > 100 | > 100 µM | > 100 | > 100 µM | – | > 100 | > 100 | > 100 | – | – | – | –
18 | COP(=O)(OC)C(Nc1ccc(Cc2ccc(NC(c3ccco3)P(=O)(OC)OC)cc2)cc1)c1ccco1 (centres undefined) | > 100 | 29.3 | 41.4 | > 100 µM | > 100 | 86.3 µM | > 100 | 60 | > 100 | > 100 | – | – | – | –
19 | O=[N+]([O-])c1cc(Cl)ccc1Sc1ccccc1 | > 100 | > 100 | > 100 | > 100 µM | > 100 | > 100 µM | > 100 | > 100 | > 100 | > 100 | – | – | – | –
20 | C[C@H]1[C@H](C)CC[C@]2(C(=O)OC3OC(CO)C(O)C(O)C3O)CC[C@]3(C)C(=CC[C@@H]4[C@@]5(C)C[C@H]6OC(=O)c7cc(O)c(O)c(O)c7-c7c(cc(O)c(O)c7O)C(=O)O[C@@H]6C(CO)(CO)[C@@H]5CC[C@]43C)[C@H]12 (some centres undefined) | > 100 | > 100 | 33 | 36.2 µM | > 100 | > 84.1 µM | > 74.4 | > 100 | > 100 | > 71.5 | – | – | – | –

From PubChem BioAssay (NCI)
